Source: patent US6362188B1, “Farnesyl protein transferase inhibitors” (Schering Corporation, priority 1998, dated 2002)

Tests used:
Human tumor cells = assay: Soft Agar Assay (anchorage-independent growth); assay type: cell-based; conditions: colony outgrowth in soft agar, stated as a range for the group
Summary of the method: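 Tumor cells suspended in 0.3% agarose over a 0.6% agarose base, both layers containing the same farnesyl transferase inhibitor concentration. Incubated 10-16 days at 37° C, 5% CO2; colonies stained with MTT (1 mg/mL in PBS) and counted, IC50 determined.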

| IC50 (Human tumor cells) | melting point | Structure (SMILES) |
| --- | --- | --- |
| 0.05 to 30 nM | 109 to 124 °C | Cc1cn(C[C@@H]2CCCN(C(=O)[C@H]3CN([C@H]4c5ccccc5CCc5cc(Br)cnc54)CCN3C(=O)OC(C)(C)C)C2)cn1 [Example 323] |
| 0.05 to 30 nM | 102 to 119 °C | Cc1cn(C[C@@H]2CCCN(C(=O)[C@H]3CN([C@@H]4c5ccccc5CCc5cc(Br)cnc54)CCN3C(=O)OC(C)(C)C)C2)cn1 [Example 324] |
| 0.05 to 30 nM | 120 to 124 °C | Cc1cn(C[C@@H]2CCCN(C(=O)[C@H]3CN([C@H]4c5ccccc5CCc5cc(Br)cnc54)CCN3C(=O)OC3CCCCC3)C2)cn1 [Example 351] |
| 0.05 to 30 nM | 122 to 125 °C | Cc1cn(C[C@@H]2CCCN(C(=O)[C@H]3CN([C@@H]4c5ccccc5CCc5cc(Br)cnc54)CCN3C(=O)OC3CCCCC3)C2)cn1 [Example 352] |
| 0.05 to 30 nM | 121 to 127 °C | Cc1cn(C[C@H]2CCCN(C(=O)[C@H]3CN([C@H]4c5ccccc5CCc5cc(Br)cnc54)CCN3C(=O)OC3CCCCC3)C2)cn1 [Example 353] |
| 0.05 to 30 nM | 124 to 128 °C | Cc1cn(CC2CCCN(C(=O)C3CN(C4c5ccccc5CCc5cc(Br)cnc54)CCN3C(=O)OC3CCCCC3)C2)cn1 (stereo not drawn) [Example 354] |
| 0.05 to 30 nM | 121 to 126 °C | Cc1cn(C[C@@H]2CCCN(C(=O)[C@H]3CN([C@H]4c5ccccc5CCc5cc(F)cnc54)CCN3C(=O)OC3CCCCC3)C2)cn1 [Example 383] |
| 0.05 to 30 nM | 104 to 111 °C | Cc1cn(C[C@@H]2CCCN(C(=O)[C@H]3CN([C@@H]4c5ccccc5CCc5cc(F)cnc54)CCN3C(=O)OC3CCCCC3)C2)cn1 [Example 384] |
| 0.05 to 30 nM | 85 to 90 °C | Cc1cn(C[C@@H]2CCCN(C(=O)[C@H]3CN([C@H]4c5ccc(Cl)cc5CCc5ccc[n+]([O-])c54)CCN3C(=O)OC3CCCCC3)C2)cn1 [Example 387] |
| 0.05 to 30 nM | 108 to 113 °C | Cc1cn(C[C@@H]2CCCN(C(=O)[C@H]3CN([C@@H]4c5ccc(Cl)cc5CCc5ccc[n+]([O-])c54)CCN3C(=O)OC3CCCCC3)C2)cn1 [Example 388] |
| 0.05 to 30 nM | 103 to 115 °C | Cc1cn(C[C@@H]2CCCN(C(=O)[C@H]3CN([C@H]4c5ccc(Cl)cc5CCc5cccnc54)CCN3C(=O)OCC(C)(C)C)C2)cn1 [Example 411] |
| 0.05 to 30 nM | 175 °C (dec.) | Cc1cn(C[C@@H]2CCCN(C(=O)[C@H]3CN([C@H]4c5ccc(Cl)cc5CCc5cccnc54)CCN3C(=O)Cc3cc[n+]([O-])cc3)C2)cn1 [Example 412] |
